Measurements from patent US20120214847A1, “2-[1-PHENYL-5-HYDROXY-4a-SUBSTITUTED-HEXAHYDROCYCLOPENTA[F]INDAZOL-5-YL]ETHYL PHENYL DERIVATIVES AS GLUCOCORTICOID RECEPTOR LIGANDS” (Merck Sharp & Dohme Corp., priority 2009, published 2012).

Biological target: T1, human GR (Homo sapiens, UniProt P04150)
T1 construct: naturally expresses the human GR; endogenous in cells
T1 sequence (P04150 1-777): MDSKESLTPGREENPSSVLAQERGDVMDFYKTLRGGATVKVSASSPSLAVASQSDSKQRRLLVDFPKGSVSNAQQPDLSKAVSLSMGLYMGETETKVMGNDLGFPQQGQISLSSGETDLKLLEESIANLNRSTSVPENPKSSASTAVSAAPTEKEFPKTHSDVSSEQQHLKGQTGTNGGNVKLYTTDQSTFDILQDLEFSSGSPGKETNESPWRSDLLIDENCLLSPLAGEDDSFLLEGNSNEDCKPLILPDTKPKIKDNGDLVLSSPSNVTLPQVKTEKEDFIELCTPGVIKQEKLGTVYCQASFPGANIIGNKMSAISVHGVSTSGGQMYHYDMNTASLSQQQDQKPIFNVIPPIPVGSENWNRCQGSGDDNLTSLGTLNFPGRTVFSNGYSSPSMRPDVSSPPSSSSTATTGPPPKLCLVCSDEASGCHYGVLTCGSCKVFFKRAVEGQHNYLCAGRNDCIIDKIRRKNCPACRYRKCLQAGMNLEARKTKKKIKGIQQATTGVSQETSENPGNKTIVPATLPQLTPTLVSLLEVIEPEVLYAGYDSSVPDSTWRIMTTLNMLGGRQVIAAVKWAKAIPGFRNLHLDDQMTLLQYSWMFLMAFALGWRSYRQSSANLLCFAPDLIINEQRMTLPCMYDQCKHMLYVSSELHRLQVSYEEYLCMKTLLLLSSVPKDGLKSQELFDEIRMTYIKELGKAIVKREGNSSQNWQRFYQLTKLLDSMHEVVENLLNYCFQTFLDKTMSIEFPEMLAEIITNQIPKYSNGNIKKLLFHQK
Assay: Trans-activation modulation of glucocorticoid receptor (GRAMMER), MMTV-LUC reporter in A549 cells
Format: cell-based
Conditions: for Transactivation A549 Cells Grammer Emax (%) / Emax: Emax relative to the activity obtained with 300 nM dexamethasone; for Transactivation A549 Cells Grammer Emax (%) / EC50: A549 cells; for EC50: IP = inflection point, read-out: Transactivation A549 Cells Grammer IP; for Emax: A549, A549 cells, read-out: Transactivation A549 Cells Grammer Emax (%)
Source text: Trans-Activation Modulation of Glucocorticoid Receptor (GRAMMER)
This assay assesses the ability of test compounds to control transcription from the MMTV-LUC reporter gene in lung adenocarcinoma A549 cells or HeLa cells, a human […] cell line that naturally expresses the human GR. The assay measures induction of a modified MMTV LTR/promoter linked to the LUC reporter gene.
The routine transient assay consists of plating 7,000-25,000 cells/well of a white, clear-bottom 96-well plate. Alternatively, 384-well plates can be used at a cell concentration of 10,000/well. The media that the cells are plated in is “exponential growth medium” which consists of phenol red-free RPMI1640 containing 10% FBS, 4 mM L-glutamine, 20 mM HEPES, 10 ug/mL human insulin, and 20 ug/mL gentamicin. Incubator conditions are 37° C. and 5% C02. The transfection is done in batch mode. The cells are trypsinized and counted to the right cell number in the proper amount of fresh media. It is then gently mixed with the FuGene6/DNA 25 mix and plated onto the 96 or 384-well plate, all the wells receive 100 uL or 40 uL, respectively, of medium+lipid/DNA complex then incubated 37° C. overnight. The transfection cocktail consists of serum-free OptiMEM, FuGene6 reagent and DNA. The manufacturer's (Roche Biochemical) protocol for cocktail setup is as follows: The lipid to DNA ratio is approximately 2.5:1 and the incubation time is 20 min at room temperature. Sixteen to 24 h after transfection, the cells are treated with dexamethasone to a final concentration of 10 nM as well as the compound of interest, such that final DMSO (vehicle) concentration is equal to or less than 1%. Each plate also contains samples that are treated with 10 nM dexamethasone alone, which is used as the 100% activity control. The cells are exposed to the compounds for 24 h. After 24 h, the cells are lysed by a Promega cell culture lysis buffer for approximately 30 min and then the luciferase activity in the extracts is assayed in the 96-well format luminometer. In 384 well format, Steady-Glo (Promega) or Steady-Lite (PerkinElmer) can be used by adding an equal volume of reagent to the media present in each well. Activity induced by 10 nM dexamethasone alone is set at 100% activity. Antagonist activity is calculated by determining the decrease in dexamethasone-induced activity in response to compound treatment relative to samples that were treated with dexamethasone alone. Results are expressed as % inhibition of 10 nM dexamethasone activity or as fold of 10 nM dexamethasone activity. This transactivation assay can be performed in an agonist and antagonist mode to identify these different activities.
Activity of test compounds is calculated as the Emax relative to the activity obtained with 300 nM dexamethasone. […] The exemplified tissue selective glucocorticoid receptor modulators of the present invention display agonist activity in this assay of greater than 5% and less than 100%, and maximal transactivation activity less then maximal transrepression activity. The action of compounds is also tested in an antagonist mode (Anti-GRAMMER) in which the cells are treated with medium containing an agonist such as 10 nM DEX and the ability of agents to inhibit the activation by an agonist is measured.

Transactivation A549 Cells Grammer Emax (%) | EC50 [µM] | Emax [%] | Compound
19 | 0.108 |  | NC(=O)C(O)c1ccccc1CC[C@]1(O)CCC2=Cc3c(cnn3-c3ccc(F)cc3)C[C@@]21C1CC1 (single isomer, unassigned) [Example 3b]
 | 0.284 | 20 | CC[C@]12Cc3cnn(-c4ccccc4)c3C=C1CC[C@@]2(O)CC(O)c1ccccn1 (single isomer, unassigned) [Example 67a]
10 | 0.174 |  | CC[C@]12Cc3cnn(-c4ccccc4)c3C=C1CC[C@@]2(O)CC(O)c1ccccn1 (single isomer, unassigned) [Example 67b]
 | 0.17 | 33 | CC[C@]12Cc3cnn(-c4ccc(F)cc4)c3C=C1CC[C@@]2(O)CC(O)c1ccc(F)cn1 (single isomer, unassigned) [Example 69a]
26 | 0.113 |  | CC[C@]12Cc3cnn(-c4ccc(F)cc4)c3C=C1CC[C@@]2(O)CC(O)c1ccc(F)cn1 (single isomer, unassigned) [Example 69b]
 | 0.186 | 10 | OC(C[C@]1(O)CCC2=Cc3c(cnn3-c3ccc(F)cc3)C[C@@]21C1CC1)c1ccc(F)cn1 (single isomer, unassigned) [Example 79a]
 | 0.061 | 27 | NC(=O)c1cccnc1CC[C@]1(O)CCC2=Cc3c(cnn3-c3ccc(F)cc3)C[C@@]21C1CC1 [Example 1, 2-{2-[(4aR,5R)-4a-Cyclopropyl-1-(4-fluorophenyl)-5-hydroxy-1,4,4a,5,6,7-hexahydrocyclopenta[f]indazol-5-yl]ethyl}pyridine-3-carboxamide]
 | 0.116 | 14 | NC(=O)c1cc(F)cnc1CC[C@]1(O)CCC2=Cc3c(cnn3-c3ccc(F)cc3)C[C@@]21C1CC1 [Example 4, 2-{2-[(4aR,5R)-4a-Cyclopropyl-1-(4-fluorophenyl)-5-hydroxy-1,4,4a,5,6,7-hexahydrocyclopenta[f]indazol-5-yl]ethyl}-5-fluoropyridine-3-carboxamide]
 | 0.047 | 29 | CC[C@]12Cc3cnn(-c4cccnc4)c3C=C1CC[C@@]2(O)CCc1ccccc1C#N [Example 5, 2-{2-[(4aS,5R)-4a-Ethyl-5-hydroxy-1-(pyridin-3-yl)-1,4,4a,5,6,7-hexahydrocyclopenta[f]indazol-5-yl]ethyl}benzonitrile]
 | 0.178 | 26 | CC[C@]12Cc3cnn(-c4ccccc4)c3C=C1CC[C@@]2(O)CCc1ccc(F)cc1C(N)=O [Example 6]
 | 0.143 | 7 | NC(=O)c1ccccc1CC[C@]1(O)CCC2=Cc3c(cnn3-c3cccc(F)c3)C[C@@]21C1CC1 [Example 7, 2-{2-[(4aR,5R)-4a-Cyclopropyl-1-(3-fluorophenyl)-5-hydroxy-1,4,4a,5,6,7-hexahydrocyclopenta[f]indazol-5-yl]ethyl}benzamide]
 | 0.106 | 47 | CC[C@]12Cc3cnn(-c4ccc(F)cc4)c3C=C1CC[C@@]2(O)CCc1ccc(F)cc1C(N)=O [Example 8, 2-{2-[(4aS,5R)-4a-Ethyl-1-(4-fluorophenyl)-5-hydroxy-1,4,4a,5,6,7-hexahydrocyclopenta[f]indazol-5-yl]ethyl}-5-fluorobenzamide]
 | 0.076 | 15 | CC[C@]12Cc3cnn(-c4cccnc4)c3C=C1CC[C@@]2(O)CCc1ccc(F)cc1C#N [Example 9, 2-{2-[(4aS,5R)-4a-Ethyl-5-hydroxy-1-(pyridin-3-yl)-1,4,4a,5,6,7-hexahydrocyclopenta[f]indazol-5-yl]ethyl}-5-fluorobenzonitrile]
 | 0.116 | 20 | CC[C@]12Cc3cnn(-c4cccnc4)c3C=C1CC[C@@]2(O)CCc1cccc(F)c1C#N [Example 10, 2-{2-[(4aS,5R)-4a-Ethyl-5-hydroxy-1-(pyridin-3-yl)-1,4,4a,5,6,7-hexahydrocyclopenta[f]indazol-5-yl]ethyl}-6-fluorobenzonitrile]
 | 0.083 | 41 | CC[C@]12Cc3cnn(-c4cccc(F)c4)c3C=C1CC[C@@]2(O)CCc1ccccc1C(N)=O [Example 11, 2-{2-[(4aS,5R)-4a-Ethyl-1-(3-fluorophenyl)-5-hydroxy-1,4,4a,5,6,7-hexahydrocyclopenta[f]indazol-5-yl]ethyl}benzamide]
 | 0.023 | 58 | CC[C@]12Cc3cnn(-c4cccc(F)c4)c3C=C1CC[C@@]2(O)CCc1cccc(F)c1C(N)=O [Example 12, 2-{2-[(4aS,5R)-4a-Ethyl-1-(3-fluorophenyl)-5-hydroxy-1,4,4a,5,6,7-hexahydrocyclopenta[f]indazol-5-yl]ethyl}-6-fluorobenzamide]
 | 0.224 | 34 | CC[C@]12Cc3cnn(-c4cccnc4)c3C=C1CC[C@@]2(O)CCc1ccccc1C(N)=O [Example 13, 2-{2-[(4aS,5R)-4a-Ethyl-5-hydroxy-1-(pyridin-3-yl)-1,4,4a,5,6,7-hexahydrocyclopenta[f]indazol-5-yl]ethyl}benzamide]
 | 0.088 | 51 | CC[C@]12Cc3cnn(-c4cccnc4)c3C=C1CC[C@@]2(O)CCc1cccc(F)c1C(N)=O [Example 14, 2-{2-[(4aS,5R)-4a-Ethyl-5-hydroxy-1-(pyridin-3-yl)-1,4,4a,5,6,7-hexahydrocyclopenta[f]indazol-5-yl]ethyl}-6-fluorobenzamide]
 | 0.062 | 29 | CC[C@]12Cc3cnn(-c4ccccc4)c3C=C1CC[C@@]2(O)CCc1cccc(F)c1C#N [Example 15, 2-{2-[(4aS,5R)-4a-Ethyl-5-hydroxy-1-phenyl-1,4,4a,5,6,7-hexahydrocyclopenta[f]indazol-5-yl]ethyl}-6-fluorobenzonitrile]
 | 0.08 | 31 | CC[C@]12Cc3cnn(-c4ccc(F)cc4)c3C=C1CC[C@@]2(O)CCc1ccccn1 [Example 16, (4aS,5R)-4a-Ethyl-1-(4-fluorophenyl)-5-[2-(pyridin-2-yl)ethyl]-1,4,4a,5,6,7-hexahydrocyclopenta[f]indazol-5-ol]
 | 0.03 | 44 | CC[C@]12Cc3cnn(-c4ccc(F)cc4)c3C=C1CC[C@@]2(O)CCc1ncccc1F [Example 17, (4aS,5R)-4a-Ethyl-1-(4-fluorophenyl)-5-[2-(3-fluoropyridin-2-yl)ethyl]-1,4,4a,5,6,7-hexahydrocyclopenta[f]indazol-5-ol]
 | 0.052 | 32 | CC[C@]12Cc3cnn(-c4ccc(F)cc4)c3C=C1CC[C@@]2(O)CCc1cc(F)ccn1 [Example 18, (4aS,5R)-4a-Ethyl-1-(4-fluorophenyl)-5-[2-(4-fluoropyridin-2-yl)ethyl]-1,4,4a,5,6,7-hexahydrocyclopenta[f]indazol-5-ol]
